From ChEMBL document CHEMBL1136299, “Adenosine-anchored triphosphate subsite probing: distinguishing between HER-2 and HER-4 tyrosine protein kinases” (Bioorg Med Chem Lett, 2003)
Activity calls are given as the source filed them. The calls are words filed in the database; no cut-off is given here.

Key:
[1] = biological target: Receptor tyrosine-protein kinase erbB-2 (Homo sapiens) (UniProt P04626); assay: Ratio of HER-2 inhibition by diastereomers
[2] = biological target: Receptor tyrosine-protein kinase erbB-4 (Homo sapiens) (UniProt Q15303); assay: Ratio of HER-4 inhibition by diastereomers
[3] = biological target: Receptor tyrosine-protein kinase erbB-4 (Homo sapiens) (UniProt Q15303); assay: Ratio of HER-4 inhibition by diastereomers (inactive)

Receptor tyrosine-protein kinase erbB-2 (Homo sapiens), sequence (P04626 whole entry): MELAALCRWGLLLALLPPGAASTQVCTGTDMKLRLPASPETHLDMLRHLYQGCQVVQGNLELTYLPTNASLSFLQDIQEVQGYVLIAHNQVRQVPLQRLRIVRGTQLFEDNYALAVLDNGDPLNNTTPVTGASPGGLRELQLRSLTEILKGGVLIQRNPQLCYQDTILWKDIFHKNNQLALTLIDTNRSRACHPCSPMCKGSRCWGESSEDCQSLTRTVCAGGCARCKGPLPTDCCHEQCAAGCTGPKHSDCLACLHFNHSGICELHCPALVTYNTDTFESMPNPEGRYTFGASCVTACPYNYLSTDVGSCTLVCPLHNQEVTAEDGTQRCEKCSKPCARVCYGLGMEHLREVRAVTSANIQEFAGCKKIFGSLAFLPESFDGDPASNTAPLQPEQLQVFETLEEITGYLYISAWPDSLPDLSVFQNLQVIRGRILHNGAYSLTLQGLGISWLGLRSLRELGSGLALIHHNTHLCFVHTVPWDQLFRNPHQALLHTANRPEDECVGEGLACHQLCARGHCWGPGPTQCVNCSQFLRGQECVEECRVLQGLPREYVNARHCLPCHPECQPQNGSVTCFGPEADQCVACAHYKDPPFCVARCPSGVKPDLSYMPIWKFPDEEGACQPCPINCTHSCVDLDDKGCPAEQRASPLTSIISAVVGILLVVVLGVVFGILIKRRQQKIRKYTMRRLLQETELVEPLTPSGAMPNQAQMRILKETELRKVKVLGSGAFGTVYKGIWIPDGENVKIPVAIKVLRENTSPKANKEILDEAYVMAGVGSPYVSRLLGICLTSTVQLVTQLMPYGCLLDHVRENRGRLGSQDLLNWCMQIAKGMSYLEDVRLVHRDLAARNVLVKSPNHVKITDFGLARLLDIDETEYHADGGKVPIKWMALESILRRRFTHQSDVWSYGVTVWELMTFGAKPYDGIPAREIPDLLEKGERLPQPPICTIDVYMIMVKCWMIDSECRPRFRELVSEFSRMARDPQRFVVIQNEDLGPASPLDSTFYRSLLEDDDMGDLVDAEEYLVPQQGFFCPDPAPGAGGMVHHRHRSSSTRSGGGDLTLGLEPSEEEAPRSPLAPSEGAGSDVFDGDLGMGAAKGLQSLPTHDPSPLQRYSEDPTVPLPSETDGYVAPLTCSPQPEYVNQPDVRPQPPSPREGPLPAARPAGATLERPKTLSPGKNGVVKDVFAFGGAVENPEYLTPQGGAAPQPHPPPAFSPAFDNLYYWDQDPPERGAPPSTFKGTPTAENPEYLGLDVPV
Receptor tyrosine-protein kinase erbB-4 (Homo sapiens), sequence (Q15303 whole entry): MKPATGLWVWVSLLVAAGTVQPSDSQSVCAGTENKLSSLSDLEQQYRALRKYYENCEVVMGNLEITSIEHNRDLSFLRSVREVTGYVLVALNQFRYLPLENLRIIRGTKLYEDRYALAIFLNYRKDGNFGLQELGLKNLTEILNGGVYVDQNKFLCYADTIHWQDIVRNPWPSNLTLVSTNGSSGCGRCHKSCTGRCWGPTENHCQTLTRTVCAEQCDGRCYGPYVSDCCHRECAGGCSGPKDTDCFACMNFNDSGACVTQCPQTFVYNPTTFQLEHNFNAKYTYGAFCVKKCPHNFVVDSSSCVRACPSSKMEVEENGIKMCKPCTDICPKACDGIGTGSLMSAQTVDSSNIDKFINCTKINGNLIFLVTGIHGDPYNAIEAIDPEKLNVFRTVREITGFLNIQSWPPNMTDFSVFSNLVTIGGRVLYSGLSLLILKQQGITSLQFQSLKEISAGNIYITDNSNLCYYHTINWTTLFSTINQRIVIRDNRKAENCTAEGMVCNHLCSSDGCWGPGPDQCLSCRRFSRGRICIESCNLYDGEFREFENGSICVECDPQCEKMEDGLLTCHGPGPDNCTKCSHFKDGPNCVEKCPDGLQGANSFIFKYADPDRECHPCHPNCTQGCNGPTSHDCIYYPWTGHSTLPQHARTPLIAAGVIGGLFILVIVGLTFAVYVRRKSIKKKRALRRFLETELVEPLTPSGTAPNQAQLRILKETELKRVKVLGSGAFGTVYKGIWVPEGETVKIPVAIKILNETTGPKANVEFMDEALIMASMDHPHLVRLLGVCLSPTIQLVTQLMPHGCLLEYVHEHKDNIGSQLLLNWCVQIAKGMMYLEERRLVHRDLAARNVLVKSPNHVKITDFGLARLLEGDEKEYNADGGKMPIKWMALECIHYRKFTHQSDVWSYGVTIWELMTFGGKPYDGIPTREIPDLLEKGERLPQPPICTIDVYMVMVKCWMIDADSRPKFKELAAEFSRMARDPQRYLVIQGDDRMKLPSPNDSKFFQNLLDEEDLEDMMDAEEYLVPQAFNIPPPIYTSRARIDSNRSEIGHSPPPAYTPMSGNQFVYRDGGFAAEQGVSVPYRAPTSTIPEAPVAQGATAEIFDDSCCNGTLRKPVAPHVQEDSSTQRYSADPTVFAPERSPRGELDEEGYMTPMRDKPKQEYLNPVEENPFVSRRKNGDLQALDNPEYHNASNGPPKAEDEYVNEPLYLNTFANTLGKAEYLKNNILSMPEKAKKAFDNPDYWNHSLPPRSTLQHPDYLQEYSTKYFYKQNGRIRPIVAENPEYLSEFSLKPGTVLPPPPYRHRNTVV

CCOC1CC2(C[C@H]3O[C@@H](n4cnc5c(N)ncnc54)[C@H](O)[C@@H]3O)OC1(C(=O)OC)C(=O)N2C (some centres not stated)
Selectivity [1]: 34.4 | Selectivity [2]: 1.6

CCOC1CC2(C)OC1(C(=O)NC[C@H]1O[C@@H](n3cnc4c(N)ncnc43)[C@H](O)[C@@H]1O)C(=O)N2C (some centres not stated)
Selectivity [1]: 9.1 | Selectivity [3]: inactive

CCOC1CC2OC1(C(=O)OC)C(=O)N2C[C@H]1O[C@@H](n2cnc3c(N)ncnc32)[C@H](O)[C@@H]1O.CCOC1C[C@@]2(C)OC1(C(=O)OC)C(=O)N2C[C@H]1O[C@@H](n2cnc3c(N)ncnc32)[C@H](O)[C@@H]1O (some centres not stated)
Selectivity [1]: 4.8 | Selectivity [2]: 1.4

CCOC1CC2(C[C@H]3O[C@@H](n4cnc5c(NC(=O)OCc6ccccc6)ncnc54)[C@H](O)[C@@H]3O)OC1(C(=O)OC)C(=O)N2C.CCOC1C[C@@]2(C[C@H]3O[C@@H](n4cnc5c(NC(=O)OCc6ccccc6)ncnc54)[C@H](O)[C@@H]3O)OC1(C(=O)OC)C(=O)N2C (some centres not stated)
Selectivity [1]: 3.1 | Selectivity [3]: inactive

CCOC1CC2(C)OC1(C(=O)OC)C(=O)N2C[C@H]1O[C@@H](n2cnc3c(NC(=O)OCc4ccccc4)ncnc32)[C@H](O)[C@@H]1O.CCOC1C[C@@]2(C)OC1(C(=O)OC)C(=O)N2C[C@H]1O[C@@H](n2cnc3c(NC(=O)OCc4ccccc4)ncnc32)[C@H](O)[C@@H]1O (some centres not stated)
Selectivity [1]: 1.7 | Selectivity [3]: inactive

CN1C(=O)C2(C(N)=O)O[C@@]1(C)CC2OC(=O)NC[C@H]1O[C@@H](n2cnc3c(N)ncnc32)[C@H](O)[C@@H]1O.CN1CC2(C(N)=O)O[C@]1(C)C(=O)C2OC(=O)NC[C@H]1O[C@@H](n2cnc3c(N)ncnc32)[C@H](O)[C@@H]1O (some centres not stated)
Selectivity [1]: 54.7 | Selectivity [2]: 1.2
